21 molecules from US9937180B2, “Constrained tricyclic sulfonamides” (ICAHN SCHOOL OF MEDICINE AT MOUNT SINAI, priority 2014, dated 2018) can be followed below.

Each structure is given as a SMILES string.

The test system of the first assay is H1650. Put plainly: H1650 Cell Viability Assays (GI50 Determination), MTT. Particulars: Homo sapiens, NCI-H1650, H1650 cells, 48 hours after drug treatment. It is filed as cell-based. How it is done: H1650 Cell Viability Assays (GI50 Determination)
Cell viability assays were performed according to Denizot, F. and R. Lang, Rapid colorimetric assay for cell growth and survival: Modifications to the tetrazolium dye procedure giving improved sensitivity and reliability Journal of Immunological Methods, 1986. 89[…]: p. 271-277.
Cells were plated at 150,000 cells per well in a 12 well plate. Twenty-four hours after plating, cells were treated as described with increasing concentrations of drug and control. Forty-eight hours after drug treatment, cells were treated with 100 uL of 3-(4,5-Dimethylthiazol-2-yl)-2,5-diphenyltetrazolium bromide (MTT) and incubated for 2 hours at 37 C. The MTT solution was subsequently replaced with 300 uL of n-propyl alcohol and re-aliquoted to a 96 well plates. Spectrophotometric analysis of each solution was performed using a 96 well plate reader at 600 nm in triplicate.
Consider `O=S(=O)(N[C@H]1CCC[C@@H](N2c3ccccc3C=Cc3ccccc32)[C@@H]1O)c1ccc(OC(F)(F)F)cc1` (racemic) [Example 25, rac-N-((1S,2S,3R)-3-(5H-dibenzo[b,f]azepin-5-yl)-2-hydroxycyclohexyl)-4-(trifluoromethoxy)benzenesulfonamide], for which growth was halved (GI50) at 10 µM. `O=S(=O)(N[C@@H]1CCCC(N2c3ccccc3CCc3ccccc32)[C@H]1O)c1ccc(OC(F)(F)F)cc1` (relative stereo) [Example 1, N-((1,2-trans)-3-(10,11-dihydro-5H-dibenzo[b,f]azepin-5-yl)-2-hydroxycyclohexyl)-4-(trifluoromethoxy)benzenesulfonamide] returned a GI50 of 5 µM. On the same count and under the same terms, with `O=S(=O)(N[C@H]1CCCC(N2c3ccccc3CCc3ccccc32)[C@@H]1O)c1ccc(OC(F)(F)F)cc1` (relative stereo) [Example 2, N-((1,2-trans)-3-(10,11-dihydro-5H-dibenzo[b,f]azepin-5-yl)-2-hydroxycyclohexyl)-4-(trifluoromethoxy)benzenesulfonamide] the figure was 15 µM; with `O=S(=O)(N[C@@H]1CCCC(N2c3ccccc3CCc3ccccc32)[C@H]1O)c1ccc(Cl)cc1` (relative stereo) [Example 4, N-(3-(10,11-dihydro-5H-dibenzo[b,f]azepin-5-yl)-2-hydroxycyclohexyl)-4-(chloro)benzenesulfonamide], 10 µM; with `O=S(=O)(N[C@@H]1CCC(N2c3ccccc3CCc3ccccc32)[C@H]1O)c1ccc(OC(F)(F)F)cc1` (relative stereo) [Example 17, N-((1S,2S,3R)-rel-3-(10,11-dihydro-5H-dibenzo[b,f]azepin-5-yl)-2-hydroxycyclopentyl)-4-(trifluoromethoxy)benzenesulfonamide], 15 µM.

Take `O=S(=O)(N[C@@H]1CCC(N2c3ccccc3CCc3ccccc32)[C@H]1O)c1ccc(Cl)cc1` (relative stereo) [Example 18, 4-chloro-N-((1S,2S,3R)-rel-3-(10,11-dihydro-5H-dibenzo[b,f]azepin-5-yl)-2-hydroxycyclopentyl)benzenesulfonamide]: growth was halved (GI50) at 20 µM.

In turn, `O=S(=O)(N[C@@H]1CCCC(N2c3ccccc3Sc3ccccc32)[C@H]1O)c1ccc(OC(F)(F)F)cc1` (relative stereo) [Example 20, N-((1R,2R,3S)-rel-2-hydroxy-3-(10H-phenothiazin-10-yl)cyclohexyl)-4-(trifluoromethoxy)benzenesulfonamide] returned a GI50 of 5 µM. `O=S(=O)(N[C@@H]1CCCC(N2c3ccccc3Sc3ccccc32)[C@H]1O)c1ccc(Cl)cc1` (relative stereo) [Example 21, 4-chloro-N-((1R,2R,3S)-rel-2-hydroxy-3-(10H-phenothiazin-10-yl)cyclohexyl)benzenesulfonamide] displayed a GI50 of 10 µM. Consider `[N-]=[N+]=Nc1ccc(S(=O)(=O)N[C@@H]2CCCC(N3c4ccccc4CCc4ccccc43)[C@H]2O)cc1` (stereo in doubt) [Example 5, N-(3-(10,11-dihydro-5H-dibenzo[b,f]azepin-5-yl)-2-hydroxycyclohexyl)-4-(azido)benzenesulfonamide], for which the 50% growth inhibitory concentration (GI50) was 15 µM. Consider `O=S(=O)(N[C@H]1CCC[C@@H](N2c3ccccc3CCc3ccccc32)[C@@H]1O)c1ccc(OC(F)(F)F)cc1Cl` (stereo in doubt) [Example 29, 2-chloro-N-(3-(10,11-dihydro-5H-dibenzo[b,f]azepin-5-yl)-2-hydroxycyclohexyl)-4-(trifluoromethoxy)benzenesulfonamide], for which the GI50 was 5 µM.

In the case of `O=S(=O)(N[C@H]1CCC[C@@H](N2c3ccccc3CCc3ccccc32)[C@@H]1O)c1ccc(OC(F)F)cc1` (stereo in doubt) [Example 32, 4-(difluoromethoxy)-N-(3-(10,11-dihydro-5H-dibenzo[b,f]azepin-5-yl)-2-hydroxycyclohexyl)benzenesulfonamide], it took 10 µM to inhibit growth by half (GI50). Still for that read-out and setting: with `O=S(=O)(N[C@H]1CCC[C@@H](N2c3ccccc3CCc3ccccc32)[C@@H]1O)c1ccc(OC(F)(F)F)c(Cl)c1` (stereo in doubt) [Example 33, 3-chloro-N-(3-(10,11-dihydro-5H-dibenzo[b,f]azepin-5-yl)-2-hydroxycyclohexyl)-4-(trifluoromethoxy)benzenesulfonamide] the figure was 5 µM. On the same count and under the same terms, the same measure for `O=S(=O)(N[C@@H]1CCC[C@H](N2c3ccccc3CCc3ccccc32)[C@H]1O)c1ccc(OC(F)(F)F)cc1` [Example 3b]: 5 µM. For the molecule `O=S(=O)(N[C@H]1CCC[C@@H](N2c3ccc(F)cc3CCc3cc(F)ccc32)[C@@H]1O)c1ccc(OC(F)(F)F)cc1` [Example 22, N-((1S,2S,3R)-3-(2,8-difluoro-10,11-dihydro-5H-dibenzo[b,f]azepin-5-yl)-2-hydroxycyclohexyl)-4-(trifluoromethoxy)benzenesulfonamide], the GI50 is 7 µM. The GI50 values of the last two molecules are within 1.5-fold of each other. Still for that read-out and setting: the same measure for `COc1ccc(S(=O)(=O)N[C@H]2CCC[C@@H](N3c4ccccc4CCc4ccccc43)[C@@H]2O)cc1` [Example 23, N-((1S,2S,3R)-3-(10,11-dihydro-5H-dibenzo[b,f]azepin-5-yl)-2-hydroxycyclohexyl)-4-methoxybenzenesulfonamide]: 20 µM. The molecule `O=S(=O)(N[C@H]1CCC[C@@H](N2c3ccccc3CCc3cc(F)ccc32)[C@@H]1O)c1ccc(OC(F)(F)F)cc1` [Example 24, N-((1S,2S,3R)-3-(2-fluoro-10,11-dihydro-5H-dibenzo[b,f]azepin-5-yl)-2-hydroxycyclohexyl)-4-(trifluoromethoxy)benzenesulfonamide] had a GI50 of 5 µM. This GI50 is about 4-fold lower than that of the molecule before. Same read-out and setting: the same measure for `CC(=O)c1ccc(S(=O)(=O)N[C@H]2CCC[C@@H](N3c4ccccc4CCc4ccccc43)[C@@H]2O)cc1` [Example 26, 4-Acetyl-N-((1S,2S,3R)-3-(10,11-dihydro-5H-dibenzo[b,f]azepin-5-yl)-2-hydroxycyclohexyl)benzenesulfonamide]: 20 µM.

As for `CC(C)(O)c1ccc(S(=O)(=O)N[C@H]2CCC[C@@H](N3c4ccccc4CCc4ccccc43)[C@@H]2O)cc1` [Example 27, N-((1S,2S,3R)-3-(10,11-dihydro-5H-dibenzo[b,f]azepin-5-yl)-2-hydroxycyclohexyl)-4-(2-hydroxypropan-2-yl)benzenesulfonamide], the GI50 amounted to 15 µM. With `O=S(=O)(N[C@H]1CCC[C@@H](N2c3ccccc3CCc3ccccc32)[C@@H]1O)c1ccc(SC(F)(F)F)cc1` [Example 28, N-(3-(10,11-dihydro-5H-dibenzo[b,f]azepin-5-yl)-2-hydroxycyclohexyl)-4-((trifluoromethyl)thio)benzenesulfonamide], the concentration for 50% growth inhibition (GI50) worked out at 5 µM. On the same count and under the same terms, the same measure for `O=S(=O)(N[C@H]1CCC[C@@H](N2c3ccccc3CCc3ccccc32)[C@@H]1O)c1ccc(CC(F)(F)F)cc1` [Example 30, N-(3-(10,11-dihydro-5H-dibenzo[b,f]azepin-5-yl)-2-hydroxycyclohexyl)-4-(2,2,2-trifluoroethyl)benzenesulfonamide]: 5 µM; for `O=S(=O)(N[C@H]1CCC[C@@H](N2c3ccccc3CCc3ccccc32)[C@@H]1O)c1ccc(C(F)(F)C(F)(F)F)cc1` [Example 31, N-(3-(10,11-dihydro-5H-dibenzo[b,f]azepin-5-yl)-2-hydroxycyclohexyl)-4-(perfluoroethyl)benzenesulfonamide]: 5 µM.

Another assay deals with Molt4 cells. Put plainly: MTS Cell Proliferation Assay (CellTiter96 AQueous). It is filed as cell-based. Particulars: Homo sapiens, MOLT-4, 48 hours, average of 3 biological replicates. The method, then: MTS Cell Proliferation Assay GI50 for Example 3a and 3b for Molt4 cells was measured using the CellTiter96 AQueous Non-Radioactive Cell Proliferation Assay (Promega). Briefly, two technical replicates of 1×10^5 cells suspended in 50 μL RPMI-1640 media were pipetted per well into a 96-well plate for each condition. An equal volume of Example 3a or 3b was dissolved in media or vehicle control (DMSO) was added to each well for final concentration of 0, 5, 10, 15, 20, 30, 40, or 80 μM of 3a or 3b. Cells were allowed to grow for 48 hours at 37° C. with 5% CO2, after which 20 μL of MTS/PMS solution was added to each well and cells were incubated for an additional 4 hrs. At the end of the incubation period, A490 was read on a Biotek uQuant spectrophotometer to measure formazen production. Relative viability was calculated as A490 for each drug condition relative to vehicle alone.
Take `O=S(=O)(N[C@@H]1CCC[C@H](N2c3ccccc3CCc3ccccc32)[C@H]1O)c1ccc(OC(F)(F)F)cc1` [Example 3b]: the GI50 was determined as 8 µM.
